Literature values as cited in US11582972B2, “Controlled-diffusion semiochemical composition” (MELCHIOR MATERIAL AND LIFE SCIENCE FRANCE, priority 2017, dated 2023).

Test system: Metamasius hemipterus sericeus
Details: for attractiveness: high doses: ethyl acetate >800 mg/d, ethyl propionate >300 mg/d, ethyl butyrate >100 mg/d

| SMILES | attractiveness | synergistic effect with pheromones (dose >650 mg/d, in the field) |
| --- | --- | --- |
| CCCC(=O)OCC [ethyl butyrate] | as attractive as 250 g of sugarcane | – |
| CCOC(C)=O [ethyl acetate] | as attractive as 250 g of sugarcane | synergistic effect with pheromones equivalent to 250 g of sugarcane |
| CCOC(=O)CC [ethyl propionate] | as attractive as 250 g of sugarcane | – |
